System: P12-Ichikawa
Experiment: cell viability relative to DMSO control; higher = less cytotoxic
Conditions: 48 h
Outline: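 Viability is a per-plate percentage relative to DMSO wells, with cell-free wells as background. CellTiter-Glo One luminescence was read after 48 h at 37°C on 1536-well plates (5 μl) of NOMO1 or SEM (500 cells/well) or P12-Ichikawa (1000 cells/well) leukemia cells. The cells had been adapted for at least four passages in each medium and pin-dosed with library compounds in DMSO from 47 μM to 0.79 nM in 11 threefold steps.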

[1] = HPLM + 10% dialyzed FBS, 0.000781 µM
[2] = HPLM + 10% dialyzed FBS, 0.00234 µM
[3] = HPLM + 10% dialyzed FBS, 0.00702 µM
[4] = HPLM + 10% dialyzed FBS, 0.0211 µM
[5] = HPLM + 10% dialyzed FBS, 0.0632 µM
[6] = HPLM + 10% dialyzed FBS, 0.19 µM
[7] = HPLM + 10% dialyzed FBS, 0.569 µM
[8] = HPLM + 10% dialyzed FBS, 1.71 µM
[9] = HPLM + 10% dialyzed FBS, 5.12 µM
[10] = HPLM + 10% dialyzed FBS, 15.4 µM
[11] = HPLM + 10% dialyzed FBS, 46.1 µM
[12] = RPMI 5 mM glucose + 10% FBS, 0.000781 µM
[13] = RPMI 5 mM glucose + 10% FBS, 0.00234 µM
[14] = RPMI 5 mM glucose + 10% FBS, 0.00702 µM
[15] = RPMI 5 mM glucose + 10% FBS, 0.0211 µM
[16] = RPMI 5 mM glucose + 10% FBS, 0.0632 µM
[17] = RPMI 5 mM glucose + 10% FBS, 0.19 µM
[18] = RPMI 5 mM glucose + 10% FBS, 0.569 µM
[19] = RPMI 5 mM glucose + 10% FBS, 1.71 µM
[20] = RPMI 5 mM glucose + 10% FBS, 5.12 µM
[21] = RPMI 5 mM glucose + 10% FBS, 15.4 µM
[22] = RPMI 5 mM glucose + 10% FBS, 46.1 µM
[23] = RPMI 5 mM glucose + 10% dialyzed FBS, 0.000781 µM
[24] = RPMI 5 mM glucose + 10% dialyzed FBS, 0.00234 µM
[25] = RPMI 5 mM glucose + 10% dialyzed FBS, 0.00702 µM
[26] = RPMI 5 mM glucose + 10% dialyzed FBS, 0.0211 µM
[27] = RPMI 5 mM glucose + 10% dialyzed FBS, 0.0632 µM
[28] = RPMI 5 mM glucose + 10% dialyzed FBS, 0.19 µM
[29] = RPMI 5 mM glucose + 10% dialyzed FBS, 0.569 µM
[30] = RPMI 5 mM glucose + 10% dialyzed FBS, 1.71 µM
[31] = RPMI 5 mM glucose + 10% dialyzed FBS, 5.12 µM
[32] = RPMI 5 mM glucose + 10% dialyzed FBS, 15.4 µM
[33] = RPMI 5 mM glucose + 10% dialyzed FBS, 46.1 µM

CCOc1cc(C(=O)Nc2ccc(Cl)c(-c3nc4ccccc4[nH]3)c2)cc(OCC)c1OCC showed a cell viability [1] of 74.3%, a cell viability [2] of 82.5% and a cell viability [3] of 89%. It also gave a cell viability [4] of 91%, a cell viability [5] of 91.9% and a cell viability [6] of 92.9%. It also gave a cell viability [7] of 98.9%, a cell viability [8] of 96.1% and a cell viability [9] of 92%. For the same compound, the cell viability [10] was 94.1%, the cell viability [11] was 84.6% and the cell viability [12] was 81.6%. The cell viability [13] was 89.8%, the cell viability [14] was 86.7% and the cell viability [15] was 88.4%. The cell viability [16] was 95.8%, the cell viability [17] was 92.9% and the cell viability [18] was 86.7%. It also gave a cell viability [19] of 86.5%, a cell viability [20] of 86.6% and a cell viability [21] of 95.4%. For the same compound, the cell viability [22] was 60.8%, the cell viability [23] was 78.9% and the cell viability [24] was 76.7%. It also gave a cell viability [25] of 84%, a cell viability [26] of 86.5% and a cell viability [27] of 85.8%. For the same compound, the cell viability [28] was 81.2%, the cell viability [29] was 88.3% and the cell viability [30] was 82.8%. It also gave a cell viability [31] of 79.8%, a cell viability [32] of 81.1% and a cell viability [33] of 53.6%.
In the case of OC[C@H]1OC(O)C[C@@H](O)[C@@H]1O (stereo partly specified), the cell viability [1] was 122%, the cell viability [2] was 124% and the cell viability [3] was 114%. It also gave a cell viability [4] of 118%, a cell viability [5] of 121% and a cell viability [6] of 120%. It also gave a cell viability [7] of 115%, a cell viability [8] of 119% and a cell viability [9] of 121%. It also gave a cell viability [10] of 118%, a cell viability [11] of 107% and a cell viability [12] of 119%. The cell viability [13] was 122%, the cell viability [14] was 124% and the cell viability [15] was 115%. It also gave a cell viability [16] of 134%, a cell viability [17] of 119% and a cell viability [18] of 131%. For the same compound, the cell viability [19] was 131%, the cell viability [20] was 120% and the cell viability [21] was 116%. The cell viability [22] was 112%, the cell viability [23] was 107% and the cell viability [24] was 125%. It also gave a cell viability [25] of 119%, a cell viability [26] of 117% and a cell viability [27] of 116%. The cell viability [28] was 116%, the cell viability [29] was 119% and the cell viability [30] was 123%. For the same compound, the cell viability [31] was 124%, the cell viability [32] was 122% and the cell viability [33] was 110%.
C/C1=C/C(=C(/CNC(=O)C2=CC(=CC3=C2C=N[N]3C4CCCC4)C5=CC=C(CN6CCOCC6)C=C5)C(=O)N1)C showed a cell viability [1] of 113%, a cell viability [2] of 118% and a cell viability [3] of 118%. For the same compound, the cell viability [4] was 117%, the cell viability [5] was 124% and the cell viability [6] was 120%. For the same compound, the cell viability [7] was 114%, the cell viability [8] was 112% and the cell viability [9] was 114%. The cell viability [10] was 106%, the cell viability [11] was 38.6% and the cell viability [12] was 128%. It also gave a cell viability [13] of 124%, a cell viability [14] of 120% and a cell viability [15] of 117%. For the same compound, the cell viability [16] was 126%, the cell viability [17] was 123% and the cell viability [18] was 126%. It also gave a cell viability [19] of 123%, a cell viability [20] of 115% and a cell viability [21] of 122%. For the same compound, the cell viability [22] was 45.8%.
CCC[C@H](Nc1nc(-c2ccc(NC(=O)NCC)c(OC)c2)ncc1C)c1cccnc1 gave a cell viability [1] of 114%, a cell viability [2] of 115% and a cell viability [3] of 117%. For the same compound, the cell viability [4] was 120%, the cell viability [5] was 22.3% and the cell viability [6] was 11.4%. It also gave a cell viability [7] of 9.4%, a cell viability [8] of 8.46% and a cell viability [9] of 7.94%. For the same compound, the cell viability [10] was 7.62%, the cell viability [11] was 6.68% and the cell viability [12] was 125%. It also gave a cell viability [13] of 137%, a cell viability [14] of 123% and a cell viability [15] of 136%. For the same compound, the cell viability [16] was 21.8%, the cell viability [17] was 12.7% and the cell viability [18] was 11.7%. For the same compound, the cell viability [19] was 8.52%, the cell viability [20] was 8.89% and the cell viability [21] was 7.34%. It also gave a cell viability [22] of 6.34%, a cell viability [23] of 120% and a cell viability [24] of 125%. The cell viability [25] was 122%, the cell viability [26] was 124% and the cell viability [27] was 29.6%. It also gave a cell viability [28] of 18.1%, a cell viability [29] of 17.2% and a cell viability [30] of 10.4%. The cell viability [31] was 11%, the cell viability [32] was 10.1% and the cell viability [33] was 7.87%.

Reference: the supplement of paper PMC11451515
